Experimental data as given in the supplement of paper PMC10307832.

Columns and labels:
Assay in all cases: relative viability (nuclei count vs DMSO), 5 days (fraction); higher = more cells survive
[1] = compound: C1=CC=C2C(=C1)N=C(S2)C(C#N)C3=NC(=NC=C3)NCCC4=CN=CC=C4 + Nc1nc2[nH]cc(CCc3ccc(C(=O)N[C@@H](CCC(=O)O)C(=O)O)cc3)c2c(=O)[nH]1 [Pemetrexed] (partner 0.2 µM)
In short: (§1)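 Lung cancer cell lines were pin-tool dosed in 1536-well plates on the day after seeding, with either a lone drug or a fixed anchor-drug dose plus five library-drug doses (not always all listed) in √10 steps. Nuclei were counted on 4× images after 5 days. Relative viability is the ratio of treated-well to vehicle-well nuclei counts, with each value a median of duplicate plates.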

[2] = compound: C1=CC=C2C(=C1)N=C(S2)C(C#N)C3=NC(=NC=C3)NCCC4=CN=CC=C4 + Cc1nc(Nc2ncc(C(=O)Nc3c(C)cccc3Cl)s2)cc(N2CCN(CCO)CC2)n1 [Dasatinib] (partner 0.075 µM)
In short: as §1

[3] = compound: C#Cc1cccc(Nc2ncnc3cc(OC)c(OCCCCCCC(=O)NO)cc23)c1 [CUDC-101] + CC(=O)c1c(C)c2cnc(Nc3ccc(N4CCNCC4)cn3)nc2n(C2CCCC2)c1=O [Palbociclib] (partner 0.5 µM)
In short: as §1

[4] = compound: COc1cc(N2CCC(N3CCN(C)CC3)CC2)ccc1Nc1ncc(Cl)c(Nc2ccccc2S(=O)(=O)C(C)C)n1 [NVP-TAE684] + Cc1nc(NC(=O)N2CCC[C@H]2C(N)=O)sc1-c1ccnc(C(C)(C)C(F)(F)F)c1 [Alpelisib] (partner 2 µM)
In short: as §1

Cell Line | relative viability ([1]; first compound 0.005 µM) | relative viability ([1]; first compound 0.01581 µM) | relative viability ([1]; first compound 0.05 µM) | relative viability ([1]; first compound 0.1581 µM) | relative viability ([1]; first compound 0.5 µM) | relative viability ([2]; first compound 0.005 µM) | relative viability ([2]; first compound 0.01581 µM) | relative viability ([2]; first compound 0.05 µM) | relative viability ([2]; first compound 0.1581 µM) | relative viability ([2]; first compound 0.5 µM) | relative viability ([3]; first compound 0.01 µM) | relative viability ([3]; first compound 0.03162 µM) | relative viability ([3]; first compound 0.1 µM) | relative viability ([3]; first compound 0.3162 µM) | relative viability ([3]; first compound 1 µM) | relative viability ([4]; first compound 0.2 µM) | relative viability ([4]; first compound 0.6325 µM) | relative viability ([4]; first compound 2 µM)
NCI-H1975 | 0.286 | 0.303 | 0.295 | 0.331 | 0.26 | 0.352 | 0.333 | 0.35 | 0.37 | 0.24 | 0.535 | 0.623 | 0.601 | 0.673 | 0.536 | 0.703 | 0.545 | 0.235
NCI-H1993 | 0.53 | 0.627 | 0.555 | 0.728 | 0.542 | 0.565 | 0.607 | 0.487 | 0.673 | 0.536 | 0.837 | 0.656 | 0.592 | 0.618 | 0.482 | – | 0.7 | 0.696
NCI-H2023 | 0.211 | 0.26 | 0.205 | 0.264 | 0.213 | 0.454 | 0.519 | 0.504 | 0.78 | 0.364 | 0.42 | 0.342 | 0.457 | 0.416 | 0.361 | 0.589 | 0.537 | 0.308
201T | 0.348 | 0.337 | 0.349 | 0.313 | 0.357 | 0.799 | 0.523 | 0.599 | 0.549 | 0.486 | 0.332 | 0.38 | 0.347 | 0.344 | 0.353 | 0.976 | 1.05 | 0.839
LK-2 | 0.237 | 0.27 | 0.295 | 0.325 | 0.281 | 0.393 | 0.264 | 0.243 | 0.26 | 0.311 | 0.824 | 0.662 | 0.574 | 0.593 | 0.194 | 0.846 | 1.07 | 0.574
SW 1573 | 0.598 | 0.782 | 0.702 | 0.9 | 0.629 | 0.587 | 0.44 | – | 0.494 | 0.324 | 0.376 | 0.346 | 0.441 | 0.501 | 0.315 | 0.574 | 0.827 | 0.592
NCI-H647 | 0.165 | 0.175 | 0.182 | 0.179 | 0.19 | 0.128 | 0.188 | 0.219 | 0.24 | 0.135 | 0.417 | 0.345 | 0.383 | 0.386 | 0.253 | 1.32 | 1.1 | 0.377
HCC-78 | 0.793 | 0.886 | 0.92 | 0.92 | 0.784 | 0.386 | 0.337 | 0.42 | 0.609 | 0.407 | 0.44 | 0.483 | 0.458 | 0.427 | 0.374 | 0.319 | 0.198 | 0.282
BEN | 0.751 | 0.627 | 0.773 | 0.883 | 0.741 | 0.229 | 0.323 | 0.326 | 0.479 | 0.425 | 0.432 | 0.477 | 0.522 | 0.513 | 0.479 | – | 0.955 | 1.02
NCI-H650 | 0.938 | 0.879 | 0.905 | 0.924 | 1.14 | 0.43 | – | 0.405 | 0.589 | 0.476 | 0.402 | 0.365 | 0.302 | 0.374 | 0.29 | 1.06 | 0.961 | 0.571
NCI-H441 | 0.317 | 0.279 | 0.238 | 0.276 | 0.265 | – | 0.663 | 0.638 | 0.473 | 0.425 | 0.222 | 0.255 | 0.183 | 0.231 | 0.221 | 0.835 | 0.965 | 0.503
NCI-H1793 | – | 0.799 | 0.851 | 1.07 | 1.1 | 0.366 | 0.419 | 0.363 | 0.436 | 0.435 | 0.275 | 0.272 | 0.36 | 0.253 | 0.247 | 0.78 | 0.637 | 0.436
NCI-H1915 | – | 0.506 | 0.434 | 0.563 | 0.481 | 0.36 | 0.294 | 0.28 | 0.335 | 0.357 | 0.547 | 0.493 | 0.524 | 0.472 | 0.339 | 1.03 | 1.13 | 0.963
HCC-366 | 0.177 | 0.146 | 0.145 | 0.165 | 0.164 | 0.591 | 0.848 | 0.539 | 0.824 | 0.676 | 0.411 | 0.442 | 0.389 | 0.39 | 0.296 | 0.758 | 0.342 | 0.0918
NCI-H1792 | – | 0.889 | 0.875 | 1.22 | 0.335 | 0.722 | 0.83 | 0.837 | 1.29 | 0.665 | 0.675 | 0.649 | 0.7 | 0.675 | 0.647 | 0.647 | 0.718 | 0.684
LCLC-103H | 0.497 | 0.502 | 0.458 | 0.461 | 0.468 | 0.415 | 0.456 | 0.473 | 0.507 | 0.312 | 0.47 | 0.51 | 0.491 | 0.45 | 0.436 | 0.99 | 0.986 | 0.995
SK-LU-1 | 0.81 | 1.06 | 0.956 | 1.12 | 0.89 | 0.174 | 0.184 | 0.189 | 0.188 | 0.199 | 0.371 | 0.354 | 0.407 | 0.455 | 0.311 | 1.1 | 0.863 | 0.4
NCI-H1666 | 0.835 | 0.823 | 0.832 | 0.852 | 0.827 | 0.603 | 0.754 | 0.734 | 0.838 | 0.818 | 0.64 | 0.661 | 0.661 | 0.599 | 0.664 | – | 0.837 | 0.524
